Paper PMC5078989, “Targeted inhibition of the COP9 signalosome for treatment of cancer” (Nature Communications, 2016)

System: panel of cancer cell lines
Experiment: Cell viability (CellTiter-Glo) dose-response across cancer cell line panel;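 also: after 72 h compound incubation with CellTiter-Glo ATP readout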
Format: cell-based, human
Settings: Homo sapiens
Source text: Next, we explored the effect of CSN5 inhibition on the viability of cancer cells. To obtain a comprehensive picture, we generated dose–response curves with a CSN5 inhibitor across more than 500 cancer cell lines in a previously described standardized setting[47] (Supplementary Data 1).
A standardized CellTiter-Glo Assay (Promega #G7570) based on the quantification of ATP was applied according to the manufacturer's protocol to measure the amount of viable cells in culture. In brief, cells were seeded into 384-well plates at optimal density for each cell line. After 4 h, compounds were added at different concentrations in growth medium and incubated for another 72 h in a humidifying chamber at 37 °C and 5% CO2. […] EC50 values were calculated from the plot of percentage of inhibition versus inhibitor concentration using the nonlinear regression analysis software Origin 7.5SR6 (OriginLab Corp.).

EC50 (MOG-G-CCM): 3.48 µM
EC50 (MOLM16, MOLM-16): 0.133 µM
EC50 (MOLM-13, MOLM-13): 0.262 µM
EC50 (MOLT-13, MOLT-13): 0.217 µM
EC50 (MOLT-16, MOLT-16): 0.341 µM
EC50 (MSTO-211H): 1.35 µM
EC50 (MV4-11, MV-4-11): 0.454 µM
EC50 (Malme-3M): 2.06 µM
EC50 (MeWo): 0.472 µM
EC50 (Mono-Mac-1, MONO-MAC-1): 0.747 µM
EC50 (NALM-6, NALM-6): 0.209 µM
EC50 (NB1, NB-1): 0.531 µM
EC50 (NB-4, NB-4): 0.212 µM
EC50 (NCI-H23, NCI-H23): 0.347 µM
EC50 (NCI-H28, NCI-H28): 4.7 µM
EC50 (NCI-H82, NCI-H82): 5.19 µM
EC50 (NCI-H146, NCI-H146): 5.25 µM
EC50 (NCI-H211, NCI-H211): 1.73 µM
EC50 (NCI-H322, NCI-H322): 2.54 µM
EC50 (NCI-H441, NCI-H441): 3.41 µM
EC50 (NCI-H460, NCI-H460): 8.61 µM
EC50 (NCI-H520, NCI-H520): 10.8 µM
EC50 (NCI-H647, NCI-H647): > 30 µM
EC50 (NCI-H650, NCI-H650): > 30 µM
EC50 (NCI-H661, NCI-H661): 0.457 µM
EC50 (NCI-H747, NCI-H747): 0.733 µM
EC50 (NCI-H810, NCI-H810): 0.754 µM
EC50 (NCI-H838, NCI-H838): 1 µM
EC50 (NCI-H841, NCI-H841): 1.04 µM
EC50 (NCI-H1048, NCI-H1048): 1.92 µM
EC50 (NCI-H1155, NCI-H1155): 0.653 µM
EC50 (NCI-H1299, NCI-H1299): 1.52 µM
EC50 (NCI-H1339, NCI-H1339): 1.13 µM
EC50 (NCI-H1341): 2.01 µM
EC50 (NCI-H1355, NCI-H1355): 1.28 µM
EC50 (NCI-H1373, NCI-H1373): 9.3 µM
EC50 (NCI-H1437, NCI-H1437): 17.7 µM
EC50 (NCI-H1568, NCI-H1568): 0.434 µM
EC50 (NCI-H1650, NCI-H1650): 1.82 µM
EC50 (NCI-H1666, NCI-H1666): 11.9 µM
EC50 (NCI-H1703, NCI-H1703): 1.64 µM
EC50 (NCI-H1755, NCI-H1755): 0.967 µM
EC50 (NCI-H1792, NCI-H1792): 2.27 µM
EC50 (NCI-H1915, NCI-H1915): 1.27 µM
EC50 (NCI-H1975, NCI-H1975): 2.83 µM
EC50 (NCI-H2023, NCI-H2023): 0.518 µM
EC50 (NCI-H2030, NCI-H2030): 0.559 µM
EC50 (NCI-H2073, NCI-H2073): 4.45 µM
EC50 (NCI-H2087, NCI-H2087): 1.12 µM
EC50 (NCI-H2110, NCI-H2110): 1.76 µM
EC50 (NCI-H2122, NCI-H2122): 0.893 µM
EC50 (NCI-H2126, NCI-H2126): > 30 µM
EC50 (NCI-H2170, NCI-H2170): 17.5 µM
EC50 (NCI-H2171, NCI-H2171): 1.34 µM
EC50 (NCI-H2172, NCI-H2172): 4.89 µM
EC50 (NCI-H2228, NCI-H2228): 4.93 µM
EC50 (NCI-H2286, NCI-H2286): 0.364 µM
EC50 (NCI-H2444, NCI-H2444): 0.322 µM
EC50 (NCI-H2452, NCI-H2452): 1.94 µM
EC50 (NCI-H3255, NCI-H3255): > 30 µM
EC50 (NCI-N87, NCI-N87): 0.106 µM
EC50 (NO36): 2 µM
EC50 (NOMO-1, NOMO-1): 1.64 µM
EC50 (NUGC-3, NUGC-3): 6.5 µM
EC50 (OCI-AML-3, OCI-AML3): 1.18 µM
EC50 (OCI-AML-5, OCI-AML5): 0.677 µM
EC50 (OCI-Ly3, OCI-LY3): 0.404 µM
EC50 (ONCO-DG-1, ONCO-DG-1): 1.11 µM
EC50 (OUMS-23, OUMS-23): 0.747 µM
EC50 (OV56, OV56): 0.401 µM
EC50 (OVCAR-3, NIH:OVCAR-3): 0.523 µM
EC50 (OVCAR-4, OVCAR-4): 1.54 µM
EC50 (OVISE): 29.1 µM
EC50 (P3HR-1, P3HR-1): 0.56 µM
EC50 (P12-Ichikawa): 0.279 µM
EC50 (P31-FUJ, P31/FUJ): 0.69 µM
EC50 (PANC-1, PANC-1): 0.477 µM
EC50 (PANC-03-27, Panc 03.27): 0.679 µM
EC50 (PC-3, PC-3): 5.89 µM
EC50 (PC-14, PC-14): 8.99 µM
EC50 (PE/CA-PJ49): 0.97 µM
EC50 (PF-382, PF-382): 0.262 µM
EC50 (PK-1, PK-1): 2.71 µM
EC50 (PK-45H): 1.86 µM
EC50 (PK-59, PK-59): 1.76 µM
EC50 (PL45, PL45): 0.722 µM
EC50 (PL-21, PL-21): 0.684 µM
EC50 (PLC-PRF-5, PLC/PRF/5): 6.99 µM
EC50 (PSN1, PSN1): 1.68 µM
EC50 (PaTu 8902, PA-TU-8902): 2.33 µM
EC50 (PaTu 8988t, PA-TU-8988T): 5.87 µM
EC50 (Panc 04.03, Panc 04.03): 6.71 µM
EC50 (Panc1005, Panc 10.05): 0.308 µM
EC50 (QGP-1, QGP-1): > 30 µM
EC50 (RCM-1, RCM-1): 2.7 µM
EC50 (RD): 1.83 µM
EC50 (RD-ES): 0.839 µM
EC50 (RERF-LC-AI): 0.581 µM
EC50 (RERF-LC-MS): 1.56 µM
EC50 (RKN): 1.13 µM
EC50 (RKO): 2.72 µM
EC50 (RMUG-S): > 30 µM
EC50 (RPMI 8402, RPMI-8402): 0.633 µM
EC50 (RPMI-7951, RPMI-7951): 16 µM
EC50 (RT-112, RT-112): 5.73 µM
EC50 (RVH-421, RVH-421): 2.43 µM
EC50 (Rh41, RH-41): 0.952 µM
EC50 (SCC-25, SCC-25): 9.93 µM
EC50 (SCaBER): 3.55 µM
EC50 (SEM): 0.728 µM
EC50 (SF8657): > 30 µM
EC50 (SF-268, SF-268): 1.88 µM
EC50 (SH-4, SH-4): 0.426 µM
EC50 (SH-10-TC): 1.39 µM
EC50 (SH-SY5Y): 3.48 µM
EC50 (SJRH30, SJRH30): 1.93 µM
EC50 (SK-CO-1, SK-CO-1): 1.22 µM
EC50 (SK-ES1, SK-ES-1): 0.543 µM
EC50 (SK-HEP1, SK-HEP-1): 0.979 µM
EC50 (SK-LU-1, SK-LU-1): 3.37 µM
EC50 (SK-MEL3, SK-MEL-3): 20 µM
EC50 (SK-MEL-2, SK-MEL-2): 1.94 µM
EC50 (SK-MEL-5, SK-MEL-5): 1.59 µM
EC50 (SK-MEL-28, SK-MEL-28): 0.419 µM
EC50 (SK-MEL-30, SK-MEL-30): 2.28 µM
EC50 (SK-MEL-31): 5.35 µM
EC50 (SK-N-SH): 2.61 µM
EC50 (SK-OV-3, SK-OV-3): > 30 µM
EC50 (SKM-1, SKM-1): 0.487 µM
EC50 (SKNBE2, SK-N-BE(2)): 0.455 µM
EC50 (SNB-19, SNB-19): 2.2 µM
EC50 (SNG-M): 0.37 µM
EC50 (SNU878, SNU-878): 6.72 µM
EC50 (SNU-8): 0.601 µM
EC50 (SNU-16, SNU-16): 2.08 µM
EC50 (SNU-61): 1.99 µM
EC50 (SNU-81): 0.733 µM
EC50 (SNU-175): 0.806 µM
EC50 (SNU-213): 4.01 µM
EC50 (SNU-349): 3.55 µM
EC50 (SNU-387, SNU-387): 0.666 µM
EC50 (SNU-398, SNU-398): 0.277 µM
EC50 (SNU-410): 21.1 µM
EC50 (SNU-423, SNU-423): 1.31 µM
Compound: COCc1ccccc1NCc1ccc([C@H]2[C@@H](O)CCCc3cncn32)c(-c2ccccc2Cl)c1 [CSN5i-2, (5S,6S)-5-(2′-chloro-5-(((2-(methoxymethyl)phenyl)amino)methyl)-[1,1′-biphenyl]-2-yl)-6,7,8,9-tetrahydro-5H-imidazo[1,5-a]azepin-6-ol]
